Tests used:
[1] = molecular target: T1, FPR1 (Homo sapiens, UniProt P21462); assay type: cell-based
T1 construct: expressed in transfected cells; host or cells: HEK293T
T1 sequence (P21462 1-350): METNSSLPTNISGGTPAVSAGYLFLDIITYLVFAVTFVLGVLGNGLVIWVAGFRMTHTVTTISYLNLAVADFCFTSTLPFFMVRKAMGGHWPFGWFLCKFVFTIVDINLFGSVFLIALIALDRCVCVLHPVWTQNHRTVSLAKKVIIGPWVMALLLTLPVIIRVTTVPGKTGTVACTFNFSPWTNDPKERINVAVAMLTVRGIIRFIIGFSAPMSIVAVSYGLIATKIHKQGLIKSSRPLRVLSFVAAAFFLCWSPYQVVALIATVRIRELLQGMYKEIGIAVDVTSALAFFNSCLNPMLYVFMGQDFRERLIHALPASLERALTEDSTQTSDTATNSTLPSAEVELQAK

[2] = test system: human polymorphonuclear granulocytes (PMN; neutrophils); assay type: cell-based; details: SARS-CoV-2 omicron B.1.1.529 spike pool peptides, 10 µM, PMN, n=6

## PPIKYFGGFNFSQIL
[1]
  non-activators of FPR1 and PMNs: FPR1: non-activators of FPR1 and PMNs
[2]
  non-activators of FPR1 and PMNs: PMNs: non-activators of FPR1 and PMNs

## RQIAPGQTGNIADYN
[1]
  non-activators of FPR1 and PMNs: FPR1: non-activators of FPR1 and PMNs
[2]
  non-activators of FPR1 and PMNs: PMNs: non-activators of FPR1 and PMNs

## LLLQYGSFCTQLKRA
[1]
  non-activators of FPR1 and PMNs: FPR1: non-activators of FPR1 and PMNs
[2]
  non-activators of FPR1 and PMNs: PMNs: non-activators of FPR1 and PMNs

## AGFNCYFPLKSYSFR
[1]
  non-activators of FPR1 and PMNs: FPR1: non-activators of FPR1 and PMNs
[2]
  non-activators of FPR1 and PMNs: PMNs: non-activators of FPR1 and PMNs

## SFRPTYGVGHQPYRV
[1]
  non-activators of FPR1 and PMNs: FPR1: non-activators of FPR1 and PMNs
[2]
  non-activators of FPR1 and PMNs: PMNs: non-activators of FPR1 and PMNs

## CNGVAGFNCYFPLKS
[1]
  non-activators of FPR1 and PMNs: FPR1: non-activators of FPR1 and PMNs
[2]
  non-activators of FPR1 and PMNs: PMNs: non-activators of FPR1 and PMNs

## YFASIEKSNIIRGWI
[1]
  non-activators of FPR1 and PMNs: FPR1: non-activators of FPR1 and PMNs
[2]
  non-activators of FPR1 and PMNs: PMNs: non-activators of FPR1 and PMNs

## PFLDHKNNKSWMESE
[1]
  non-activators of FPR1 and PMNs: FPR1: non-activators of FPR1 and PMNs
[2]
  non-activators of FPR1 and PMNs: PMNs: non-activators of FPR1 and PMNs

## SKFGAISSVLNDIFS
[1]
  non-activators of FPR1 and PMNs: FPR1: non-activators of FPR1 and PMNs
[2]
  non-activators of FPR1 and PMNs: PMNs: non-activators of FPR1 and PMNs

## ISTEIYQAGNKPCNG
[1]
  non-activators of FPR1 and PMNs: FPR1: non-activators of FPR1 and PMNs
[2]
  non-activators of FPR1 and PMNs: PMNs: non-activators of FPR1 and PMNs

## VNHNAQALNTLVKQL
[1]
  non-activators of FPR1 and PMNs: FPR1: non-activators of FPR1 and PMNs
[2]
  non-activators of FPR1 and PMNs: PMNs: non-activators of FPR1 and PMNs

## GNIADYNYKLPDDFT
[1]
  non-activators of FPR1 and PMNs: FPR1: non-activators of FPR1 and PMNs
[2]
  non-activators of FPR1 and PMNs: PMNs: non-activators of FPR1 and PMNs

## KRALTGIAVEQDKNT
[1]
  non-activators of FPR1 and PMNs: FPR1: non-activators of FPR1 and PMNs
[2]
  non-activators of FPR1 and PMNs: PMNs: non-activators of FPR1 and PMNs

## LYNLAPFFTFKCYGV
[1]
  significant FPR1 activators (group of the spike peptide pool screening): significant FPR1 activators
[2]
  significant PMN activators (group of the spike peptide pool screening): significant PMN activators

## GHQPYRVVVLSFELL
[1]
  significant FPR1 activators (group of the spike peptide pool screening): significant FPR1 activators
[2]
  significant PMN activators (group of the spike peptide pool screening): significant PMN activators

## KHTPIIVREPEDLPQ
[1]
  non-activators of FPR1 and PMNs: FPR1: non-activators of FPR1 and PMNs
[2]
  non-activators of FPR1 and PMNs: PMNs: non-activators of FPR1 and PMNs

## IAARDLICAQKFKGL
[2]
  significant PMN activators (group of the spike peptide pool screening): significant PMN activators

## PGQTGNIADYNYKLP
[1]
  non-activators of FPR1 and PMNs: FPR1: non-activators of FPR1 and PMNs
[2]
  non-activators of FPR1 and PMNs: PMNs: non-activators of FPR1 and PMNs

## YQGVNCTEVPVAIHA
[1]
  non-activators of FPR1 and PMNs: FPR1: non-activators of FPR1 and PMNs
[2]
  non-activators of FPR1 and PMNs: PMNs: non-activators of FPR1 and PMNs

## ALGKLQDVVNHNAQA
[1]
  non-activators of FPR1 and PMNs: FPR1: non-activators of FPR1 and PMNs
[2]
  non-activators of FPR1 and PMNs: PMNs: non-activators of FPR1 and PMNs

## CPFDEVFNATRFASV
[1]
  non-activators of FPR1 and PMNs: FPR1: non-activators of FPR1 and PMNs
[2]
  non-activators of FPR1 and PMNs: PMNs: non-activators of FPR1 and PMNs

## NKCVNFNFNGLKGTG
[1]
  non-activators of FPR1 and PMNs: FPR1: non-activators of FPR1 and PMNs
[2]
  non-activators of FPR1 and PMNs: PMNs: non-activators of FPR1 and PMNs

## KIYSKHTPIIVREPE
[1]
  non-activators of FPR1 and PMNs: FPR1: non-activators of FPR1 and PMNs
[2]
  non-activators of FPR1 and PMNs: PMNs: non-activators of FPR1 and PMNs

## TYGVGHQPYRVVVLS
[1]
  significant FPR1 activators (group of the spike peptide pool screening): significant FPR1 activators
[2]
  significant PMN activators (group of the spike peptide pool screening): significant PMN activators

## DLFLPFFSNVTWFHV
[1]
  significant FPR1 activators (group of the spike peptide pool screening): significant FPR1 activators
[2]
  significant PMN activators (group of the spike peptide pool screening): significant PMN activators

## DFTGCVIAWNSNKLD
[1]
  non-activators of FPR1 and PMNs: FPR1: non-activators of FPR1 and PMNs
[2]
  non-activators of FPR1 and PMNs: PMNs: non-activators of FPR1 and PMNs

## TQTKSHRRARSVASQ
[1]
  non-activators of FPR1 and PMNs: FPR1: non-activators of FPR1 and PMNs
[2]
  non-activators of FPR1 and PMNs: PMNs: non-activators of FPR1 and PMNs

## AGICASYQTQTKSHR
[1]
  non-activators of FPR1 and PMNs: FPR1: non-activators of FPR1 and PMNs
[2]
  non-activators of FPR1 and PMNs: PMNs: non-activators of FPR1 and PMNs

## IYQAGNKPCNGVAGF
[1]
  non-activators of FPR1 and PMNs: FPR1: non-activators of FPR1 and PMNs
[2]
  non-activators of FPR1 and PMNs: PMNs: non-activators of FPR1 and PMNs

## NCVADYSVLYNLAPF
[1]
  non-activators of FPR1 and PMNs: FPR1: non-activators of FPR1 and PMNs
[2]
  non-activators of FPR1 and PMNs: PMNs: non-activators of FPR1 and PMNs

## KQLSSKFGAISSVLN
[1]
  non-activators of FPR1 and PMNs: FPR1: non-activators of FPR1 and PMNs
[2]
  non-activators of FPR1 and PMNs: PMNs: non-activators of FPR1 and PMNs

## IYKTPPIKYFGGFNF
[2]
  significant PMN activators (group of the spike peptide pool screening): significant PMN activators

## IIVREPEDLPQGFSA
[1]
  non-activators of FPR1 and PMNs: FPR1: non-activators of FPR1 and PMNs
[2]
  non-activators of FPR1 and PMNs: PMNs: non-activators of FPR1 and PMNs

## YFGGFNFSQILPDPS
[1]
  non-activators of FPR1 and PMNs: FPR1: non-activators of FPR1 and PMNs
[2]
  non-activators of FPR1 and PMNs: PMNs: non-activators of FPR1 and PMNs

## QTRAGCLIGAEYVNN
[1]
  non-activators of FPR1 and PMNs: FPR1: non-activators of FPR1 and PMNs
[2]
  non-activators of FPR1 and PMNs: PMNs: non-activators of FPR1 and PMNs

## PFFSNVTWFHVISGT
[1]
  significant FPR1 activators (group of the spike peptide pool screening): significant FPR1 activators
[2]
  significant PMN activators (group of the spike peptide pool screening): significant PMN activators

## SHRRARSVASQSIIA
[1]
  non-activators of FPR1 and PMNs: FPR1: non-activators of FPR1 and PMNs
[2]
  non-activators of FPR1 and PMNs: PMNs: non-activators of FPR1 and PMNs

## CTQLKRALTGIAVEQ
[1]
  non-activators of FPR1 and PMNs: FPR1: non-activators of FPR1 and PMNs
[2]
  non-activators of FPR1 and PMNs: PMNs: non-activators of FPR1 and PMNs

## NTLVKQLSSKFGAIS
[1]
  non-activators of FPR1 and PMNs: FPR1: non-activators of FPR1 and PMNs
[2]
  non-activators of FPR1 and PMNs: PMNs: non-activators of FPR1 and PMNs

## APFFTFKCYGVSPTK
[1]
  non-activators of FPR1 and PMNs: FPR1: non-activators of FPR1 and PMNs
[2]
  non-activators of FPR1 and PMNs: PMNs: non-activators of FPR1 and PMNs

## TSNQVAVLYQGVNCT
[1]
  non-activators of FPR1 and PMNs: FPR1: non-activators of FPR1 and PMNs
[2]
  non-activators of FPR1 and PMNs: PMNs: non-activators of FPR1 and PMNs

## CEFQFCNDPFLDHKN
[1]
  non-activators of FPR1 and PMNs: FPR1: non-activators of FPR1 and PMNs
[2]
  non-activators of FPR1 and PMNs: PMNs: non-activators of FPR1 and PMNs

## AISSVLNDIFSRLDK
[1]
  non-activators of FPR1 and PMNs: FPR1: non-activators of FPR1 and PMNs
[2]
  non-activators of FPR1 and PMNs: PMNs: non-activators of FPR1 and PMNs

## RFPNITNLCPFDEVF
[1]
  non-activators of FPR1 and PMNs: FPR1: non-activators of FPR1 and PMNs
[2]
  non-activators of FPR1 and PMNs: PMNs: non-activators of FPR1 and PMNs

## NVTWFHVISGTNGTK
[1]
  significant FPR1 activators (group of the spike peptide pool screening): significant FPR1 activators
[2]
  significant PMN activators (group of the spike peptide pool screening): significant PMN activators

## DYSVLYNLAPFFTFK
[1]
  significant FPR1 activators (group of the spike peptide pool screening): significant FPR1 activators
[2]
  significant PMN activators (group of the spike peptide pool screening): significant PMN activators

## KGLTVLPPLLTDEMI
[1]
  significant FPR1 activators (group of the spike peptide pool screening): significant FPR1 activators

## LQDVVNHNAQALNTL
[1]
  non-activators of FPR1 and PMNs: FPR1: non-activators of FPR1 and PMNs
[2]
  non-activators of FPR1 and PMNs: PMNs: non-activators of FPR1 and PMNs

## DLICAQKFKGLTVLP
[2]
  significant PMN activators (group of the spike peptide pool screening): significant PMN activators

## AQKFKGLTVLPPLLT
[1]
  significant FPR1 activators (group of the spike peptide pool screening): significant FPR1 activators

From article PMC12284294 (iScience, 2025)
